In patent publication US10160750B2, “Diamide macrocycles as factor XIa inhibitors” (BRISTOL-MYERS SQUIBB COMPANY, priority 2015, dated 2018):

Assays:
[1] = target: T1, purified human Factor XIa (Homo sapiens, UniProt P03951); assay: Factor XIa enzyme inhibition assay (chromogenic substrate S-2366); format: biochemical; details: substrate S-2366, pH 7.4
T1 construct: purchased Haematologic Technologies
Procedure: (§1) The effectiveness of compounds of the present invention as inhibitors of the coagulation Factors XIa, VIIa, IXa, Xa, XIIa, plasma kallikrein or thrombin, can be determined using a relevant purified serine protease, respectively, and an appropriate synthetic substrate. The rate of hydrolysis of the chromogenic or fluorogenic substrate by the relevant serine protease was measured both in the absence and presence of compounds of the present invention. […] A decrease in the rate of absorbance or fluorescence change in the presence of inhibitor is indicative of enzyme inhibition. Such methods are known to one skilled in the art. The results of this assay are expressed as the inhibitory constant, Ki.
Factor XIa determinations were made in 50 mM HEPES buffer at pH 7.4 containing 145 mM NaCl, 5 mM KCl, and 0.1% PEG 8000 (polyethylene glycol; JT Baker or Fisher Scientific). Determinations were made using purified human Factor XIa at a final concentration of 25-200 pM (Haematologic Technologies) and the synthetic substrate S-2366 (pyroGlu-Pro-Arg-pNA; Chromogenix or AnaSpec) at a concentration of 0.0002-0.001 M.
(§2) The Michaelis constant, Km, for substrate hydrolysis by each protease, was determined at 25° C. or 37° C. in the absence of inhibitor. Values of Ki were determined by allowing the protease to react with the substrate in the presence of the inhibitor. Reactions were allowed to go for periods of 20-180 minutes (depending on the protease) and the velocities (rate of absorbance or fluorescence change versus time) were measured. The following relationships were used to calculate Ki values: (Vmax*S)/(Km+S); (vo−vs)/vs=I/(Ki*(1+S/Km)) for a competitive inhibitor with one binding site; or vs/vo=A+((B−A)/(1+(IC50/(I))^n)); and Ki=IC50/(1+S/Km) for a competitive inhibitor where: […]

[2] = target: T2, purified human plasma kallikrein (Homo sapiens, UniProt P03952); assay: Plasma kallikrein enzyme inhibition assay (chromogenic substrate S-2302); format: biochemical; details: substrate S-2302, pH 7.5
T2 construct: Plasma prekallikrein is a zymogen of a trypsin-like serine protease; purchased Enzyme Research Laboratories
Procedure: as §1
Plasma kallikrein determinations were made in 0.1 M sodium phosphate buffer at a pH of 7.5 containing 0.1-0.2 M sodium chloride and 0.5% PEG 8000. Determinations were made using purified human plasma kallikrein (Enzyme Research Laboratories) at a final assay concentration of 200 pM and the synthetic substrate S-2302 (H-(D)-Pro-Phe-Arg-pNA; Chromogenix) at a concentration of 0.00008-0.0004 M.
as §2

T2 sequence (P03952 391-638 limits assumed): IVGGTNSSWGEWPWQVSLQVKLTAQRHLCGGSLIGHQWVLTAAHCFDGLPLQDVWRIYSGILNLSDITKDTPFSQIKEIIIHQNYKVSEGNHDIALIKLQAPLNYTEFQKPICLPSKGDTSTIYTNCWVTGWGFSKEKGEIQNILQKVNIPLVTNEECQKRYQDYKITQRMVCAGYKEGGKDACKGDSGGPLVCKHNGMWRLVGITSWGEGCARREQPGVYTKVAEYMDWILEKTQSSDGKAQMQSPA
T2 sequence (P03952 20-390 partner limits assumed): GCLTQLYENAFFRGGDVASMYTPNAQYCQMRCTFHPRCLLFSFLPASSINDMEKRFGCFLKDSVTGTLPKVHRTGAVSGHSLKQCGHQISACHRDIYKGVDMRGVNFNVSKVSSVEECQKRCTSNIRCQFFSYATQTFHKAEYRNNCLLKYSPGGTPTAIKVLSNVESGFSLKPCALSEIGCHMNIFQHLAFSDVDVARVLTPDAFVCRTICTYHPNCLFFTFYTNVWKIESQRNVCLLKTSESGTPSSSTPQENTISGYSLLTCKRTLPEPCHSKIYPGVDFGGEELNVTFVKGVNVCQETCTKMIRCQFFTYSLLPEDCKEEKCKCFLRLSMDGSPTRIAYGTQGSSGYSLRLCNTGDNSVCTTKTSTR
T1 sequence (P03951 388-625 limits assumed): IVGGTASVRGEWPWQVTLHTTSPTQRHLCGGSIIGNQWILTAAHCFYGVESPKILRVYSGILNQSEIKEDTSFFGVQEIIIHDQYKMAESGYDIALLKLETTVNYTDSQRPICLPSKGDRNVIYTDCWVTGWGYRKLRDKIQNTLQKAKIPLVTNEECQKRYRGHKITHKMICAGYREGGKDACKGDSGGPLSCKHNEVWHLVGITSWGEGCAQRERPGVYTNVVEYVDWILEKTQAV
T1 sequence (P03951 19-387 partner limits assumed): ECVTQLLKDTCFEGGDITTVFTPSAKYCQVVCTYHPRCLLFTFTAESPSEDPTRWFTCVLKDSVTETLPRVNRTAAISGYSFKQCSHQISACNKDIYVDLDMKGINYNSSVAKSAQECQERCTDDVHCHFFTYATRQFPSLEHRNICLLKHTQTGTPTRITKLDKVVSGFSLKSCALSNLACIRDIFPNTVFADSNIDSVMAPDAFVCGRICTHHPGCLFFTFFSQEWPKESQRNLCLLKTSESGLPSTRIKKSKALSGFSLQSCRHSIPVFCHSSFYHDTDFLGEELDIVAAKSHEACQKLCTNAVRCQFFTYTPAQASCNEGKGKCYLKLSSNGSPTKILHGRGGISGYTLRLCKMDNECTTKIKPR

| Ki [1] | Ki [2] | SMILES |
| --- | --- | --- |
| 93 nM | 2830 nM | CC1NC(=O)[C@@H](N2CCC(c3cc(Cl)ccc3-n3cc(C(F)(F)F)nn3)=CC2=O)CCC[C@@H](C)C(=O)Nc2ccccc21 (single isomer, unassigned; diastereomer a) [Example 21] |
| 3680 nM | > 13000 nM | CC1NC(=O)[C@@H](N2CCC(c3cc(Cl)ccc3-n3cc(C(F)(F)F)nn3)=CC2=O)CCC[C@@H](C)C(=O)Nc2ccccc21 (single isomer, unassigned; diastereomer b) [Example 22] |
| 18.7 nM | 3380 nM | C[C@@H]1CCC[C@H](n2cnc(-c3cc(Cl)ccc3-n3cc(C(F)(F)F)nn3)cc2=O)C(=O)NCc2ccccc2NC1=O [Example 11, (3R,7S)-7-(4-(5-Chloro-2-(4-(trifluoromethyl)-1H-1,2,3-triazol-1-yl)phenyl)-6-oxopyrimidin-1(6H)-yl)-3-methyl-4,5,6,7,9,10-hexahydrobenzo[b][1,5]-diazacyclododecine-2,8(1H, 3H)-dione] |
| 2 nM | 179 nM | C[C@@H]1CCC[C@H](n2cnc(-c3c(-n4cc(Cl)nn4)ccc(Cl)c3F)cc2=O)C(=O)NCc2ccccc2NC1=O [Example 12, (3R,7S)-7-(4-(3-Chloro-6-(4-chloro-1H-1,2,3-triazol-1-yl)-2-fluorophenyl)-6-oxopyrimidin-1(6H)-yl)-3-methyl-4,5,6,7,9,10-hexahydrobenzo[b][1,5]diazacyclo-dodecine-2,8(1H,3H)-dione] |
| 8.5 nM | 1230 nM | C[C@@H]1CCC[C@H](n2cnc(-c3cc(Cl)ccc3-n3cc(Cl)nn3)cc2=O)C(=O)NCc2ccccc2NC1=O [Example 13, (3R,7S)-7-(4-(5-Chloro-2-(4-chloro-1H-1,2,3-triazol-1-yl)phenyl)-6-oxopyrimidin-1(6H)-yl)-3-methyl-4,5,6,7,9,10-hexahydrobenzo[b][1,5]diazacyclo-dodecine-2,8(1H,3H)-dione] |
| 4.3 nM | 733 nM | C[C@@H]1CCC[C@H](n2cnc(-c3c(-n4cc(C(F)(F)F)nn4)ccc(Cl)c3F)cc2=O)C(=O)NCc2ccccc2NC1=O [Example 14, (3R,7S)-7-(4-(3-Chloro-2-fluoro-6-(4-(trifluoromethyl)-1H-1,2,3-triazol-1-yl)phenyl)-6-oxopyrimidin-1(6H)-yl)-3-methyl-4,5,6,7,9,10-hexahydrobenzo[b][1,5]-diazacyclododecine-2,8(1H,3H)-dione] |
| 34.8 nM | 3360 nM | C[C@@H]1CCC[C@H](n2cnc(-c3cc(Cl)ccc3-n3cc(C(F)F)nn3)cc2=O)C(=O)NCc2ccccc2NC1=O [Example 15, (3R,7S)-7-(4-(5-Chloro-2-(4-(difluoromethyl)-1H-1,2,3-triazol-1-yl)phenyl)-6-oxopyrimidin-1(6H)-yl)-3-methyl-4,5,6,7,9,10-hexahydrobenzo[b][1,5]diazacyclo-dodecine-2,8(1H, 3H)-dione] |
| 4 nM | 60.7 nM | C[C@@H]1CCC[C@H](N2CCC(c3cc(Cl)ccc3-n3cc(Cl)nn3)=CC2=O)C(=O)NCc2ccccc2NC1=O [Example 16, (3R,7S)-7-(4-(5-Chloro-2-(4-chloro-H-1,2,3-triazol-1-yl)phenyl)-2-oxo-5,6-dihydropyridin-1(2H)-yl)-3-methyl-4,5,6,7,9,10-hexahydrobenzo[b][1,5]diazacyclododecine-2,8(1H, 3H)-dione] |
| 112 nM | 558 nM | C[C@@H]1CCC[C@H](N2CCC(c3c(F)ccc(Cl)c3F)=CC2=O)C(=O)NCc2ccccc2NC1=O [Example 17, (3R,7S)-7-(4-(3-Chloro-2,6-difluorophenyl)-2-oxo-56-dihydropyridin-1(2H)-yl)-3-methy 1-4,5,6,7,9,10-hexahydrobenzo[b][1,5]diazacyclododecine-2,8(1H,3H)-dione] |
| 3.1 nM | 103 nM | C[C@@H]1CCC[C@H](N2CCC(c3cc(Cl)ccc3-n3cc(C(F)(F)F)nn3)=CC2=O)C(=O)NCc2ccccc2NC1=O [Example 18] |
| 10.1 nM | 259 nM | C[C@@H]1CCC[C@H](n2ccc(-c3cc(Cl)ccc3-n3cc(Cl)nn3)cc2=O)C(=O)NCc2ccccc2NC1=O [Example 18] |
| 18.7 nM | ≥ 13000 nM | C[C@@H]1CCC[C@H](n2cnc(-c3cc(Cl)ccc3-n3cc(C(F)(F)F)nn3)cc2=O)C(=O)NCc2cc(F)ccc2NC1=O [Example 19, (3R,7S)-7-(4-(5-Chloro-2-(4-(trifluoromethyl)-1H-1,2,3-triazol-1-yl)phenyl)-6-oxopyrimidin-1(6H)-yl)-12-fluoro-3-methyl-4,5,6,7,9,10-hexahydrobenzo[b][1,5]diazacyclododecine-2,8(1H,3H)-dione] |
| 7 nM | 268 nM | C[C@@H]1CCC[C@H](N2CCC(c3cc(Cl)ccc3-n3cc(C(F)(F)F)nn3)=CC2=O)C(=O)NCc2cc(F)ccc2NC1=O [Example 20, (3R,7S)-7-(4-(5-Chloro-2-(4-(trifluoromethyl)-1H-1,2,3-triazol-1-yl)phenyl)-2-oxo-5,6-dihydropyridin-1(2H)-yl)-12-fluoro-3-methyl-4,5,6,7,9,10-hexahydrobenzo[b][1,5]diazacyclododecine-2,8(1H,3H)-dione] |
| 8730 nM | ≥ 13000 nM | C[C@@H]1CCC[C@H](NC(=O)c2cn(-c3cccc(Cl)c3F)nn2)C(=O)NCc2ccccc2NC1=O [Example 23, 1-(3-chloro-2-fluorophenyl)-N-((3R,7S)-3-methyl-2,8-dioxo-1,2,3,4,5,6,7,8,9,10-decahydrobenzo[b][1,5]diazacyclododecin-7-yl)-1H-1,2,3-triazole-4-carboxamide] |
| 7410 nM | 4360 nM | Cc1c(C(=O)N[C@H]2CCC[C@@H](C)C(=O)Nc3ccccc3CNC2=O)ncn1-c1cccc(Cl)c1F [Example 24, 1-(3-chloro-2-fluorophenyl)-5-methyl-N-((3R,7S)-3-methyl-2,8-dioxo-1,2,3,4,5,6,7,8,9,10-decahydrobenzo[b][1,5]diazacyclododecin-7-yl)-1H-imidazole-4-carboxamide] |
| 6000 nM | > 13000 nM | O=C1CCCCC[C@H](NC(=O)c2cn(-c3cccc(Cl)c3F)nn2)C(=O)Nc2ccccc2N1 [Example 25, (S)-1-(3-chloro-2-fluorophenyl)-N-(2,9-dioxo-1,2,3,4,5,6,7,8,9,10-decahydrobenzo[b][1,4]diazacyclododecin-3-yl)-1H-1,2,3-triazole-4-carboxamide] |
| 1740 nM | 765 nM | Cc1c(C(=O)N[C@H]2CCCCCC(=O)Nc3cc(C(=O)O)ccc3NC2=O)cnn1-c1cccc(Cl)c1F [Example 26, (S)-3-(1-(3-chloro-2-fluorophenyl)-5-methyl-1H-pyrazole-4-carboxamido)-2,9-dioxo-1,2,3,4,5,6,7,8,9,10-decahydrobenzo[b][1,4]diazacyclododecine-12-carboxylic acid] |
| 561 nM | > 13000 nM | COC(=O)c1ccc2c(c1)NC(=O)CCCCC[C@H](n1cnc(-c3cc(Cl)ccc3-n3cc(C(F)(F)F)nn3)cc1=O)C(=O)N2 [Example 27, methyl (S)-3-(4-(5-chloro-2-(4-(trifluoromethyl)-1H-1,2,3-triazol-1-yl)phenyl)-6-oxopyrimidin-1(6H)-yl)-2,9-dioxo-1,2,3,4,5,6,7,8,9,10-decahydrobenzo[b][1,4]diazacyclododecine-12-carboxylate] |
| 173 nM | 11600 nM | O=C1CCCCC[C@H](n2cnc(-c3cc(Cl)ccc3-n3cc(C(F)(F)F)nn3)cc2=O)C(=O)Nc2ccc(C(=O)O)cc2N1 [Example 28, (S)-3-(4-(5-chloro-2-(4-(trifluoromethyl)-1H-1,2,3-triazol-1-yl)phenyl)-6-oxopyrimidin-1(6H)-yl)-2,9-dioxo-1,2,3,4,5,6,7,8,9,10-decahydrobenzo[b][1,4]diazacyclododecine-12-carboxylic acid] |
